Values joined by “and” are separate entries in the source; they are usually repeats but may differ in a detail not shown here. Equal values may be shown once.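 Briefly, cells in 96-well plates were exposed to five compound concentrations for 48 h, and endpoints were estimated by linear interpolation. GI50 is the concentration that inhibits growth by half. TGI denotes the concentration required for complete inhibition of growth.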
Legend:
Experiment in all cases: NCI-60 cell line screen, 48 h
[1] = tested on: K-562 leukemia
[2] = tested on: OVCAR-8 ovarian
[3] = tested on: SF-268 CNS
[4] = tested on: SF-539 CNS
[5] = tested on: SK-OV-3 ovarian
[6] = tested on: U251 CNS
[7] = tested on: UACC-257 melanoma
[8] = tested on: XF 498 CNS
[9] = tested on: DLD-1 colon
[10] = tested on: LOX IMVI melanoma

Structure (SMILES) | TGI [1] [µM] | TGI [2] | TGI [3] | TGI [4] | TGI [5] | TGI [6] | TGI [7] | TGI [8] [µM] | TGI [9] [µM] | TGI [10] | GI50 [1] [µM] | GI50 [10] [µM] | GI50 [2] [µM] | GI50 [3] [µM] | GI50 [4] [µM] | GI50 [5] [µM] | GI50 [6] [µM] | GI50 [7] [µM] | GI50 [9] [µM]
CN(CCCN1C(=O)c2cccc3cc([N+](=O)[O-])cc(c23)C1=O)CCN(C)CCCN1C(=O)c2cccc3cc([N+](=O)[O-])cc(c23)C1=O | > 39.3 | > 39.3 µM | > 39.3 µM | > 39.3 µM | > 39.3 µM | > 39.3 µM | > 39.3 µM | > 39.3 |  |  |  |  |  |  |  |  |  |  | 
O=C(O)/C(Cl)=C(Cl)/C=N/NC(=O)c1cc2ccccc2cc1O | > 100 | > 100 µM | > 100 µM | > 100 µM | > 100 µM | > 100 µM | 65.6 µM | > 100 | > 100 |  |  |  |  |  |  |  |  |  | 
O=[N+]([O-])c1cccc(S(=O)(=O)N/N=C/c2cc(I)cc([N+](=O)[O-])c2O)c1 | 58.4 | 63.2 µM | 79.3 µM | 48.5 µM | 73.2 µM | 57.8 µM | 57 µM |  | > 100 | 62.3 µM |  |  |  |  |  |  |  |  | 
CN(C)CC1C(=O)O[C@H]2[C@H]1CC/C(COC(=O)NCc1ccc(Cn3c(=O)sn(CCCI)c3=O)cc1)=C\CC[C@@]1(C)O[C@@H]21 (stereo partly specified) | 6.01 | 2.72 µM | 11.4 µM | 8.75 µM | 14.8 µM | 14.3 µM | 11.7 µM |  |  | 1.69 µM | 1.02 | 0.913 | 1.16 | 4.84 | 2.57 | 7.96 | 7.53 | 4.04 | 
COc1cc2c(NC3CCN(C(C)C)CC3)nc(C3CCCCC3)nc2cc1OCCCN1CCCC1 | 4.55 | 15.6 µM | 14.1 µM | 3.48 µM | 23.4 µM | 5.11 µM | 3.25 µM |  |  | 3.95 µM | 1.99 | 1.75 | 3.97 | 3.37 | 1.79 | 9.57 | 1.97 | 1.67 | 
Oc1ccc(Cl)cc1Sc1cc(Cl)ccc1O | > 100 | 42.7 µM and 10.8 µM | 31.9 µM and 13.4 µM | 37.2 µM and 11.2 µM | 43.5 µM and 19.1 µM | 22.1 µM and 12.2 µM | 19.3 µM and 6.91 µM |  |  | 24 µM and 8.42 µM | 3.8 | 2.63 | 3.36 | 3.51 | 3.14 | 4.86 | 3.31 | 2.83 | 
C=C1C(=O)O[C@@H]2CC(CO)=C([C@@H](C)CCCO)[C@@H](OC(=O)/C(C)=C\C)[C@H]12 | 31.2 | > 76.8 µM | 50.2 µM | > 71.3 µM | > 100 µM | 37.6 µM | 38.1 µM |  |  | 24.3 µM |  |  |  |  |  |  |  |  | 
OC(CN1CCCC2CCCCC21)c1cc2ccccc2c2ccccc12 (stereo unspecified) | 3.39 | 15.3 µM | 13.7 µM | 4.74 µM | 10.8 µM | 3.77 µM | 4.73 µM |  |  | 2.93 µM | 1.68 | 1.53 | 3.2 | 3.64 | 1.99 | 3.16 | 1.85 | 1.96 | 
C(=C\c1ccncc1)/c1ccncc1 | > 100 | > 100 µM | > 100 µM | > 100 µM | > 100 µM | > 100 µM | > 100 µM |  |  | > 100 µM | > 100 | > 100 | > 100 | > 100 | > 100 | > 100 | > 100 | > 100 | 
O=C(NCc1ccco1)C1CCN(S(=O)(=O)c2ccc(Cl)cc2)CC1 | > 100 | > 100 µM | > 100 µM | > 100 µM | > 100 µM | > 100 µM | > 100 µM |  |  | > 100 µM | 39.2 | 36.3 | > 100 | > 100 | > 100 | > 100 | > 100 | > 100 | 
NC(Cc1cccnn1)C(=O)O (stereo unspecified) | > 100 | > 100 µM | > 100 µM | > 100 µM | > 100 µM | > 100 µM | > 100 µM |  |  | > 100 µM |  |  |  |  |  |  |  |  | 
CCC[n+]1cc2cc3c(cc2c2c1-c1cc4c(cc1C2)OCO4)OCO3 (tested in a mixture with another compound) | > 35 | 12.2 µM | 1.95 µM | 2.88 µM | 16.4 µM | 3.32 µM | 3.16 µM |  |  | 14.3 µM | 0.581 | 3.22 | 0.575 | 0.0649 | 0.425 | 3.57 | 0.229 | 0.706 | 
COC(=O)C12C34C=CC5(CCC6(C=CC1(CC3)O6)C52C(=O)OC)O4 (stereo unspecified) | > 100 | > 100 µM | > 100 µM | > 100 µM | > 100 µM | > 100 µM | > 100 µM | > 100 |  | > 100 µM |  |  |  |  |  |  |  |  | 
O=C1C(Cl)=C(Nc2cc(Cl)ccc2O)C(=O)N1Cc1ccccc1 | 65.3 | 36.4 µM | 35 µM | 36.3 µM | 43.3 µM | 29.6 µM | 28.3 µM |  |  | 32.2 µM | 23.7 | 16.7 | 17.5 | 17.5 | 20 | 19.7 | 15.8 | 14.1 | 
CC(=O)[CH-]C(=O)c1ccccc1.CC(=O)[CH-]C(=O)c1ccccc1.CC[C@H](/C=C/C(C)[C@H]1CCC2[C@@H]3CC=C4C[C@@H]([O-])CC[C@]4(C)C3CC[C@@]21C)C(C)C.CC[C@H](/C=C/C(C)[C@H]1CCC2[C@@H]3CC=C4C[C@@H]([O-])CC[C@]4(C)C3CC[C@@]21C)C(C)C.Cl.[Ti+4] (stereo partly specified) | > 25 | > 25 µM | > 25 µM | > 25 µM | > 25 µM | > 25 µM | > 25 µM |  | > 25 | > 25 µM | > 25 | > 25 | > 25 | > 25 | > 25 | > 25 | > 25 | > 25 | > 25
O=C1CC(Cc2n[nH]c3c2CCCC3)CC(=O)N1 | > 100 | > 100 µM | > 100 µM | > 100 µM | > 100 µM | > 100 µM | > 100 µM |  |  | > 100 µM |  |  |  |  |  |  |  |  | 
CC(=O)O[C@@H]1C2=C(C)C3(CC3)[C@@](C)(O)C(=O)C2=C[C@@]1(C)CO | > 100 | > 100 µM | 2.79 µM | 3.38 µM | 8.01 µM | > 36.1 µM | 5.38 µM |  |  | 4.44 µM | 0.482 | 1.04 | 0.427 | 0.357 | 1.02 | 1.55 | 0.396 | 1.65 | 
